Data set [1] in a line: Live/Dead cytotoxicity assay, hybridoma supernatant. The following applies: human. The protocol:
(§1) In conjunction with testing for antibody binding, the cytotoxic effects of the hybridoma supernatants were tested in the same colon cancer and normal cell lines: HT-29, SW1116 (and Lovo for AR26A439.3) and CCD-27sk. The Live/Dead cytotoxicity assay was obtained from Molecular Probes ([…].). The assays were performed according to the manufacturer's instructions with the changes outlined below. Cells were plated before the assay at the predetermined appropriate density. After 2 days, 100 μl of supernatant from the hybridoma microtitre plates were transferred to the cell plates and incubated in a 5 percent CO2 incubator for 5 days. […] An anti-EGFR antibody (C225) was also used in the assay for comparison. After 5 days of treatment, the plate was then emptied by inverting and blotting dry. Room temperature DPBS (Dulbecco's phosphate buffered saline) containing MgCl2 and CaCl2 was dispensed into each well from a multichannel squeeze bottle, tapped 3 times, emptied by inversion and then blotted dry. 50 μl of the fluorescent Live/Dead dye diluted in DPBS containing MgCl2 and CaCl2 was added to each well and incubated at 37° C. in a 5% CO2 incubator for 30 minutes. The plates were read in a Perkin-Elmer HTS7000 fluorescence plate reader and the data was analyzed in Microsoft Excel.

Data set [2] relates to CCD-27sk normal cell line. Described as above. The following applies: 5 days. As for the experimental part: as §1
Data set [3] has as its system HT-29 colon cancer cell line. Described as above. The following applies: 5 days. The protocol: as §1

As for `C[C@@H]1C[C@@H]([C@H](O)CC2CC(=O)NC(=O)C2)C(=O)[C@@H](C)C1` [Cycloheximide], the cytotoxicity at 5 days in data set [1] is 56%; in data set [1] (Cytotoxicity (%) CCD-27sk Average) it was 21%; in data set [1] (Cytotoxicity (%) HT-29 Average), 46%. Further, in data set [2], the “Cytotoxicity (%) CCD-27sk Average” value worked out at 40%. The “Cytotoxicity (%) HT-29 Average” value in data set [3] is 48%.
For `[N-]=[N+]=[N-]` [NaN3, sodium azide], the cytotoxicity at 5 days was 4% in data set [1] and 59% in data set [1] (Cytotoxicity (%) HT-29 Average). In addition, the “Cytotoxicity (%) HT-29 Average” value in data set [3] came out at 57%.

The values are drawn from patent publication US20050027106A1, “Cancerous disease modifying antibodies” (priority 2003, published 2005).
